# Source: ChEMBL document CHEMBL1201862, “PubChem BioAssay data set” (2004)
#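 48-hour exposure; five concentrations; linearly interpolated endpoints. GI50 is the concentration that inhibits growth by half.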 Calls of active or inactive are those of the source. No stated cut-off is given here; in the data, active = GI50 up to about 1.1 µM and inactive = higher.
# How the values were obtained:
# Assay in all cases: NCI anticancer screen, dose series, 48 h
# [1] = system: MDA-MB-435
# [2] = system: NCI/ADR-RES
# [3] = system: Hs-578T
# [4] = system: EKVX
# [5] = system: NCI-H460
# [6] = system: CCRF-CEM
# [7] = system: OVCAR-8
# [8] = system: OVCAR-5
# [9] = system: HCT-15
# [10] = system: HOP-92
# [11] = system: OVCAR-3
# [12] = system: Malme-3M
# [13] = system: SF-295
# [14] = system: PC-3
# [15] = system: DU-145
# [16] = system: MDA-MB-231
# [17] = system: SN12C
# [18] = system: SR
# [19] = system: SK-OV-3
# [20] = system: HOP-62
# [21] = system: SNB-75
# [22] = system: M14
# [23] = system: NCI-H226
# [24] = system: SF-539
# [25] = system: 786-0
# [26] = system: MDA-N
# [27] = system: BT-549
# [28] = system: MCF7
# [29] = system: UACC-62
# [30] = system: UO-31
# [31] = system: A498
# [32] = system: RXF 393
# [33] = system: UACC-257
# [34] = system: RPMI-8226
# [35] = system: K562
# [36] = system: COLO 205
# [37] = system: SK-MEL-28
# [38] = system: CAKI-1
# [39] = system: LOX IMVI
# [40] = system: OVCAR-4
# [41] = system: SK-MEL-5
# [42] = system: MOLT-4
# [43] = system: SNB-19
# [44] = system: ACHN
# [45] = system: A549
# [46] = system: SF-268
# [47] = system: HT-29
# [48] = system: HCC 2998
# [49] = system: U-251
# [50] = system: T47D
# [51] = system: HCT-116
# [52] = system: KM12
# [53] = system: TK-10
# [54] = system: HL-60
# [55] = system: SK-MEL-2
# [56] = system: IGROV-1
# [57] = system: NCI-H522
# [58] = system: NCI-H23
# [59] = system: SW-620
structure (smiles),measurement,setting,value
CO/N=C(\C)c1cccc(Nc2nc3ccccc3c3occc23)c1,GI50,[1],12200 nM (inactive)
same,GI50,[2],14400 nM (inactive)
same,GI50,[3],10900 nM (inactive)
same,GI50,[4],13600 nM (inactive)
same,GI50,[5],11800 nM (inactive)
same,GI50,[6],12500 nM (inactive)
same,GI50,[7],17100 nM (inactive)
same,GI50,[8],13800 nM (inactive)
same,GI50,[9],10400 nM
same,GI50,[10],6300 nM (inactive)
same,GI50,[11],16300 nM (inactive)
same,GI50,[12],15700 nM (inactive)
same,GI50,[13],13000 nM (inactive)
same,GI50,[14],14500 nM (inactive)
same,GI50,[15],15800 nM (inactive)
same,GI50,[16],10400 nM (inactive)
same,GI50,[17],13300 nM (inactive)
same,GI50,[18],11900 nM (inactive)
same,GI50,[19],14100 nM (inactive)
same,GI50,[20],15400 nM (inactive)
same,GI50,[21],15300 nM (inactive)
same,GI50,[22],16700 nM (inactive)
same,GI50,[23],1560 nM (inactive)
same,GI50,[24],13600 nM (inactive)
same,GI50,[25],13800 nM (inactive)
same,GI50,[26],14100 nM (inactive)
same,GI50,[27],13500 nM (inactive)
same,GI50,[28],18100 nM (inactive)
same,GI50,[29],< 10 nM (active)
same,GI50,[30],< 10 nM (active)
same,GI50,[31],3610 nM (inactive)
same,GI50,[32],12400 nM (inactive)
same,GI50,[33],41.9 nM (active)
same,GI50,[34],12900 nM (inactive)
same,GI50,[35],16400 nM (inactive)
same,GI50,[36],12100 nM (inactive)
same,GI50,[37],14300 nM (inactive)
same,GI50,[38],10800 nM (inactive)
same,GI50,[39],15200 nM (inactive)
same,GI50,[40],14800 nM (inactive)
same,GI50,[41],14800 nM (inactive)
same,GI50,[42],11200 nM (inactive)
same,GI50,[43],15700 nM (inactive)
same,GI50,[44],14000 nM (inactive)
same,GI50,[45],13100 nM (inactive)
same,GI50,[46],15400 nM (inactive)
same,GI50,[47],5190 nM (inactive)
same,GI50,[48],15100 nM (inactive)
same,GI50,[49],15900 nM (inactive)
same,GI50,[50],11100 nM (inactive)
same,GI50,[51],11600 nM (inactive)
same,GI50,[52],7590 nM (inactive)
same,GI50,[53],12700 nM (inactive)
same,GI50,[54],27700 nM (inactive)
O[C@]12C=C(c3nccc4c3[nH]c3ccccc34)[C@@H]3CCN(CCCC/C=C\CC1)C[C@@]31CC3/C=C\CCCCN3[C@H]12 (some centres not stated),GI50,[1],366 nM (active)
same,GI50,[2],514 nM (active)
same,GI50,[55],244 nM (active)
same,GI50,[3],411 nM (active)
same,GI50,[4],441 nM (active)
same,GI50,[5],191 nM (active)
same,GI50,[6],740 nM (active)
same,GI50,[7],331 nM (active)
same,GI50,[8],405 nM (active)
same,GI50,[9],288 nM
same,GI50,[10],252 nM (active)
same,GI50,[11],302 nM (active)
same,GI50,[12],509 nM (active)
same,GI50,[13],513 nM (active)
same,GI50,[14],351 nM (active)
same,GI50,[15],344 nM (active)
same,GI50,[16],484 nM (active)
same,GI50,[17],440 nM (active)
same,GI50,[18],311 nM (active)
same,GI50,[19],86.9 nM (active)
same,GI50,[20],223 nM (active)
same,GI50,[21],242 nM (active)
same,GI50,[22],371 nM (active)
same,GI50,[23],582 nM (active)
same,GI50,[24],530 nM (active)
same,GI50,[25],130 nM (active)
same,GI50,[26],367 nM (active)
same,GI50,[27],804 nM (active)
same,GI50,[28],478 nM (active)
same,GI50,[29],73.3 nM (active)
same,GI50,[56],112 nM (active)
same,GI50,[30],199 nM (active)
same,GI50,[31],364 nM (active)
same,GI50,[33],652 nM (active)
same,GI50,[57],263 nM (active)
same,GI50,[34],310 nM (active)
same,GI50,[35],367 nM (active)
same,GI50,[36],344 nM (active)
same,GI50,[37],615 nM (active)
same,GI50,[38],541 nM (active)
same,GI50,[39],275 nM (active)
same,GI50,[40],454 nM (active)
same,GI50,[41],187 nM (active)
same,GI50,[42],138 nM (active)
same,GI50,[43],1230 nM (inactive)
same,GI50,[44],299 nM (active)
same,GI50,[45],360 nM (active)
same,GI50,[46],533 nM (active)
same,GI50,[47],119 nM (active)
same,GI50,[48],284 nM (active)
same,GI50,[49],355 nM (active)
same,GI50,[50],340 nM (active)
same,GI50,[51],243 nM (active)
same,GI50,[58],213 nM (active)
same,GI50,[59],306 nM (active)
same,GI50,[52],387 nM (active)
same,GI50,[53],378 nM (active)
same,GI50,[54],248 nM (active)
